Some results are limits rather than exact numbers.

The first assay deals with T1, human PAH with the R408W mutation (Homo sapiens, UniProt P00439, R408W).
T1 construct: expressed in transfected cells
T1 sequence (P00439 1-452 R408W): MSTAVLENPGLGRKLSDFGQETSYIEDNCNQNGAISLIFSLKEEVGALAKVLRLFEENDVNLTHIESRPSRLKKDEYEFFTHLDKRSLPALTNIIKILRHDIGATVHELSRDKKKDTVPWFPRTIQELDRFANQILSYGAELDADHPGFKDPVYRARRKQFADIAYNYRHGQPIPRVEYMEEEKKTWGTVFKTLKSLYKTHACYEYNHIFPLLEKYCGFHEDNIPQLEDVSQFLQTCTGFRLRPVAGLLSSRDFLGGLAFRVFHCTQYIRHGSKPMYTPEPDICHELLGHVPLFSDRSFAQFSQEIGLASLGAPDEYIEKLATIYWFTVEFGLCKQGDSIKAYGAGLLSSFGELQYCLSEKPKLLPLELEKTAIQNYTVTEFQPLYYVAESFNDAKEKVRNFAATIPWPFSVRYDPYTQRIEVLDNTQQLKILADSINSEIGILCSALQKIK
The assay can be described thus: Cell Based Phenylalanine Flux Assay. Also noted: scale not given here. To be noted: A375 cells expressing human R408W PAH; 24 hrs compound incubation; 13C-Tyrosine by LC-MS; average where tested multiple times; read-out: AC50.
On to `Cn1cc(C(=O)N2CCc3[nH]cnc3[C@@H]2c2nc3c(F)cccc3s2)c(Cl)n1` [Example 1643, (R)-(3-chloro-1-methyl-1H-pyrazol-4-yl)(4-(4-fluorobenzo[d]thiazol-2-yl)-6,7-dihydro-1H-imidazo[4,5-c]pyridin-5(4H)-yl)methanone], for which the half-maximal activity concentration (AC50) is 1 to 5 µM.
Take `Cn1nc(Cl)nc1C(=O)N1CCc2[nH]cnc2[C@H]1c1nc2ccccc2s1` [Example 1937]: the AC50 lay within 0.5 to 1 µM.
In the case of `CC(C)n1ncnc1C(=O)N1CCc2[nH]cnc2[C@H]1c1nc2c(F)cccc2s1` [Example 2039, (S)-(4-(4-fluorobenzo[d]thiazol-2-yl)-6,7-dihydro-1H-imidazo[4,5-c]pyridin-5(4H)-yl)(1-isopropyl-1H-1,2,4-triazol-5-yl)methanone], the AC50 was under 0.5 µM.
As to `O=C(C1CC1)N1CCc2[nH]cnc2[C@@H]1c1nc2cccc(F)c2s1` [Example 1260, (R)-cyclopropyl(4-(7-fluorobenzo[d]thiazol-2-yl)-6,7-dihydro-1H-imidazo[4,5-c]pyridin-5(4H)-yl)methanone], the half-maximal activity concentration (AC50) is over 5 µM.
For `Cc1nnc(C(=O)N2CCc3[nH]cnc3[C@@H]2c2nc3ccccc3s2)s1` [Example 1042, (R)-(4-(benzo[d]thiazol-2-yl)-6,7-dihydro-1H-imidazo[4,5-c]pyridin-5(4H)-yl)(5-methyl-1,3,4-thiadiazol-2-yl)methanone], the half-maximal activity concentration (AC50) was over 5 µM.
Regarding `O=C(c1cncs1)N1CCc2[nH]cnc2[C@H]1c1nc2ccc(Br)cc2[nH]1` [Example 947, (S)-(4-(6-bromo-1H-benzo[d]imidazol-2-yl)-6,7-dihydro-1H-imidazo[4,5-c]pyridin-5(4H)-yl)(thiazol-5-yl)methanone], the AC50 was in the range of 0.5 to 1 µM.
On the same count and under the same terms, for `CC(C)(O)c1ncc(C(=O)N2CCc3[nH]cnc3[C@H]2c2nc3c(F)cccc3s2)s1` [Example 1477, (S)-(4-(4-fluorobenzo[d]thiazol-2-yl)-6,7-dihydro-1H-imidazo[4,5-c]pyridin-5(4H)-yl)(2-(2-hydroxypropan-2-yl)thiazol-5-yl)methanone] the value was under 0.5 µM.
On the same count and under the same terms, next, `CC(C)(C)OC(=O)N1CC(c2nnc(C(=O)N3CCc4[nH]cnc4[C@@H]3c3nc4ccccc4s3)o2)C1` [Example 1894, (R)-tert-butyl 3-(5-(4-(benzo[d]thiazol-2-yl)-4,5,6,7-tetrahydro-1H-imidazo[4,5-c]pyridine-5-carbonyl)-1,3,4-oxadiazol-2-yl)azetidine-1-carboxylate]: 1 to 5 µM.
`O=C(c1cnn2ccc(Br)cc12)N1CCc2[nH]cnc2[C@@H]1c1nc2cc(F)ccc2s1` [Example 1282, (R)-(5-bromopyrazolo [1,5-a]pyridin-3-yl)(4-(5-fluorobenzo[d]thiazol-2-yl)-6,7-dihydro-1H-imidazo[4,5-c]pyridin-5(4H)-yl)methanone]: the half-maximal activity concentration (AC50) fell in the range of 1 to 5 µM.
On to `O=C(c1cn[nH]c1C(F)F)N1CCc2[nH]cnc2[C@@H]1c1nc2ccccc2s1` [Example 1858, (R)-(4-(benzo[d]thiazol-2-yl)-6,7-dihydro-1H-imidazo[4,5-c]pyridin-5(4H)-yl)(5-(difluoromethyl)-1H-pyrazol-4-yl)methanone], for which the half-maximal activity concentration (AC50) was 1 to 5 µM.
Take `Cc1c(-c2ncc(C(=O)N3CCc4[nH]cnc4[C@H]3c3nc4ccccc4s3)s2)cnn1C` [Example 1359]: the AC50 was under 0.5 µM.
As for `Cn1nc(CF)cc1C(=O)N1CCc2[nH]cnc2[C@@H]1c1nc2c(F)cccc2s1` [Example 1918, (R)-(4-(4-fluorobenzo[d]thiazol-2-yl)-6,7-dihydro-1H-imidazo[4,5-c]pyridin-5(4H)-yl)(3-(fluoromethyl)-1-methyl-1H-pyrazol-5-yl)methanone], the concentration at half-maximal activity (AC50) is 1 to 5 µM.
Take `O=C(c1nnc(-c2cc(C(F)(F)F)ccn2)o1)N1CCc2[nH]cnc2[C@@H]1c1nc2ccccc2s1` [Example 1890, [(4R)-4-(1,3-benzothiazol-2-yl)-1,4,6,7-tetrahydroimidazo[4,5-c]pyridin-5-yl]-[5-[4-(trifluoromethyl)-2-pyridyl]-1,3,4-oxadiazol-2-yl]methanone]: the AC50 is 1 to 5 µM.
As to `O=C(c1ccccc1)N1CCc2[nH]cnc2[C@H]1c1nc2ccccc2s1` [Example 1065], the half-maximal activity concentration (AC50) is under 0.5 µM.
Same read-out and setting: for `O=C(c1cnn2cc(F)ccc12)N1CCc2[nH]cnc2[C@@H]1c1nc2ccccc2s1` [Example 1040, (R)-(4-(benzo[d]thiazol-2-yl)-6,7-dihydro-1H-imidazo[4,5-c]pyridin-5(4H)-yl)(6-fluoropyrazolo[1,5-a]pyridin-3-yl)methanone] the value was over 5 µM.
Same read-out and setting: for `Cc1nc(C(C)C)oc1C(=O)N1CCc2[nH]cnc2[C@@H]1c1nc2ccccc2s1` [Example 1398, (R)-(4-(benzo[d]thiazol-2-yl)-6,7-dihydro-1H-imidazo[4,5-c]pyridin-5(4H)-yl)(2-isopropyl-4-methyloxazol-5-yl)methanone] the value was 1 to 5 µM; for `C[C@H](O)c1nc(C(F)F)c(C(=O)N2CCc3[nH]cnc3[C@@H]2c2nc3ccccc3s2)o1` [Example 2096, ((R)-4-(benzo[d]thiazol-2-yl)-6,7-dihydro-1H-imidazo[4,5-c]pyridin-5(4H)-yl)(4-(difluoromethyl)-2-((S)-1-hydroxyethyl)oxazol-5-yl)methanone], 1 to 5 µM.
Regarding `O=C(c1scnc1C(F)(F)F)N1CCc2[nH]cnc2[C@@H]1c1nc2ccccc2s1` [Example 1342, (R)-(4-(benzo[d]thiazol-2-yl)-6,7-dihydro-1H-imidazo[4,5-c]pyridin-5(4H)-yl)(4-(trifluoromethyl)thiazol-5-yl)methanone], the AC50 was under 0.5 µM.
For `O=C(c1cncs1)N1CCc2[nH]cnc2[C@H]1c1nc2ccccc2[nH]1` [Example 914, (S)-(4-(1H-benzo[d]imidazol-2-yl)-6,7-dihydro-1H-imidazo[4,5-c]pyridin-5(4H)-yl)(thiazol-5-yl)methanone], the AC50 lay within 0.5 to 1 µM.
On to `O=C(CC1CC1)N1CCc2[nH]cnc2[C@@H]1c1nc2ccc(F)cc2[nH]1` [Example 963, (R)-2-cyclopropyl-1-(4-(6-fluoro-1H-benzo[d]imidazol-2-yl)-6,7-dihydro-1H-imidazo[4,5-c]pyridin-5(4H)-yl)ethanone], for which the AC50 was 1 to 5 µM.
Take `O=C(c1nccs1)N1CCc2[nH]cnc2[C@H]1c1nc2cccc(Cl)c2[nH]1` [Example 984, (S)-(4-(7-chloro-1H-benzo[d]imidazol-2-yl)-6,7-dihydro-1H-imidazo[4,5-c]pyridin-5(4H)-yl)(thiazol-2-yl)methanone]: the AC50 lay within 0.5 to 1 µM.

The same assay, now with this note: A375 cells expressing human R408W PAH; 24 hrs with compound; 13C-Tyrosine by LC-MS; average where tested multiple times.
Regarding `O=C(c1c(C(F)(F)F)nn2c1CCCC2)N1CCc2[nH]cnc2C1c1nc2ccccc2s1` (stereo not shown), the half-maximal activity concentration (AC50) result was “E, E”.

Staying with this assay, now noted: A375 cells expressing human R408W PAH; 24 hrs with compound; 13C-Tyrosine by LC-MS; average where tested multiple times; read-out: AC50.
As for `Cn1ncc(C(=O)N2CCc3[nH]cnc3C2c2nc3c(F)cccc3s2)c1Cl` (stereo not shown), the half-maximal activity concentration (AC50) is over 5 µM.
With `Cc1ncoc1CC(=O)N1CCc2[nH]cnc2[C@H]1c1nc2ccccc2[nH]1` [(S)-1-(4-(1H-benzo[d]imidazol-2-yl)-6,7-dihydro-1H-imidazo[4,5-c]pyridin-5(4H)-yl)-2-(4-methyloxazol-5-yl)ethanone], the AC50 lay in the range of 1 to 5 µM.
As for `O=C(c1ccc2ncsc2c1)N1CCc2[nH]cnc2C1c1nc2ccccc2[nH]1` (stereo not shown), the AC50 was over 5 µM.
On to `O=C(Cc1ccccn1)N1CCc2[nH]cnc2C1c1nc2ccccc2s1` (stereo not shown), for which the concentration at half-maximal activity (AC50) is over 5 µM.
`O=C(c1cnn2cc(Cl)ccc12)N1CCc2[nH]cnc2[C@H]1c1nc2ccc(Br)cc2[nH]1` (single isomer, unassigned): the half-maximal activity concentration (AC50) was in the range of 1 to 5 µM.
`COCc1cc(C(=O)N2CCc3[nH]cnc3C2c2nc3c(F)cccc3s2)n(C)n1` (stereo not shown): the AC50 is over 5 µM.
Turning to `O=C(c1cnn2c(Br)cccc12)N1CCc2[nH]cnc2C1c1nc2ccc(Cl)cc2[nH]1` (stereo not shown), the AC50 lay within 1 to 5 µM.
With `O=C(Cc1nccs1)N1CCc2[nH]cnc2C1c1nc2ccc(Cl)cc2[nH]1` (stereo not shown), the AC50 is over 5 µM.
As to `Cc1nnc(CCC(=O)N2CCc3[nH]cnc3C2c2nc3ccc(F)cc3[nH]2)s1` (stereo not shown), the AC50 was over 5 µM.
Still for that read-out and setting: for `O=C(Nc1ccc(F)cc1)N1CCc2[nH]cnc2C1c1nc2ccccc2s1` (stereo not shown) the value was over 5 µM; for `Cn1cnc(C(=O)N2CCc3[nH]cnc3C2c2nc3c(F)cccc3s2)n1` (stereo not shown), over 5 µM; for `CC(C)(O)c1ncc(C(=O)N2CCc3[nH]cnc3[C@H]2c2nc3ccccc3[nH]2)o1` [(S)-(4-(1H-benzo[d]imidazol-2-yl)-6,7-dihydro-1H-imidazo[4,5-c]pyridin-5(4H)-yl)(2-(2-hydroxypropan-2-yl)oxazol-5-yl)methanone], over 5 µM.
For the compound `Cc1nc(-c2ccccn2)c(C(=O)N2CCc3[nH]cnc3C2c2nc3ccccc3s2)o1` (stereo not shown), the AC50 was over 5 µM.
On to `O=C(CCc1nccs1)N1CCc2nc[nH]c2C1c1nc2cc(Cl)ccc2s1` (stereo not shown), for which the AC50 fell in the range of 1 to 5 µM.
For `CC(C)(O)c1nc(C2CC2)c(C(=O)N2CCc3[nH]cnc3[C@H]2c2nc3ccccc3[nH]2)o1` [(S)-(4-(1H-benzo[d]imidazol-2-yl)-6,7-dihydro-1H-imidazo[4,5-c]pyridin-5(4H)-yl)(4-cyclopropyl-2-(2-hydroxypropan-2-yl)oxazol-5-yl)methanone], the AC50 was 1 to 5 µM.
For `O=C(c1nccs1)N1CCc2[nH]cnc2C1c1nc2ccc(F)cc2[nH]1` (stereo not shown), the AC50 was over 5 µM.
For the compound `O=C(c1cncs1)N1CCc2[nH]cnc2C1c1nc2ccc(F)cc2s1` (stereo not shown), the AC50 was over 5 µM.
As for `O=C(c1ncco1)N1CCc2[nH]cnc2C1c1nc2ccc(F)cc2s1` (stereo not shown), the concentration at half-maximal activity (AC50) fell in the range of 1 to 5 µM.

These data come from patent publication US20250171438A1 (Agios Pharmaceuticals, Inc., priority 2022, published 2025).
